# From US20100234315A1, “COMPOSITIONS AND METHODS FOR TREATING PSYCHIATRIC AND […]” (priority 2009, published 2010)
# Tests used:
# [1] = system: spontaneously hypertensive rats (SHR); experiment: Open-field locomotor activity (beam breaks, rearing) in SHR rats; format: in vivo, rat
# Protocol: (§1) The effects of Protoveratrine B (PVB) on locomotor activity were determined using an open-field apparatus (High Density Cage Rack System; Kent Scientific Corporation). Adult spontaneously hypertensive rats (SHR) and adult Wistar Kyoto rats (WKY) were purchased from Charles River Laboratories. […] Sessions lasted 30-minutes and were separated by at least one day to diminish the likelihood of habituation to the apparatus. Three doses of PVB were investigated based upon the blood-pressure phase of the study: 0.01, 0.02 & 0.04 mg/kg.
# (§2) The number of beam breaks was averaged across subjects and into 30-s bins. The upper panel represents the WKY control rats (N=8); the bottom panel represents the SHR rats (N=8). The different plots represent the baseline and different doses of PVB. Several details can be gleaned from the data. […] Second, activity levels in the SHRs appear to drop off precipitously throughout the session and eventually converge with the activity levels seen in the WKYs.
# (§3) To better comprehend the effects of dose on locomotor activity, a dose-response graph was constructed for each rat strain. To construct these graphs, the number of beam breaks that occurred in the first thirty bins (first 15 min) of all rats within a strain was averaged and plotted as a function of dose. The resulting graphs, shown in FIG. 2, represent the effects of PVB on activity within the first 15 minutes post injection.
# (§4) Another measure of activity level is rearing (measured by beam breaks of an infrared plane approximately 5″ above the floor of the chamber). Rearing data were analyzed in the same way as the horizontal beam breaks. The results are illustrated in FIG. 3. […] Unlike the horizontal activity, rearing activity in SHRs was decreased by the 0.01 mg/kg dose.
# [2] = system: Wistar Kyoto rats (WKY); experiment: Open-field locomotor activity (beam breaks, rearing) in WKY rats; format: in vivo, rat
# Protocol: as §1, §2, §3, §4
smiles,measurement,setting,value
"CC[C@@H](C)C(=O)O[C@H]1[C@H](O)[C@H]2[C@@H](CN3C[C@@H](C)CC[C@H]3[C@@]2(C)O)[C@@H]2C[C@]34O[C@]5(O)[C@@H](OC(=O)[C@](C)(O)[C@@H](C)O)CC[C@@]3(C)[C@@H]5[C@@H](OC(C)=O)[C@@H](OC(C)=O)[C@H]4[C@@]21O (stereo in doubt) [PVB, Protoveratrine B]",activity level (beam breaks) vs baseline,"[1]; 0.01 mg/kg i.p., FIG. 1",did not affect activity
same,rearing activity at lowest dose,"[1]; 0.01 mg/kg i.p., FIG. 3",decreased
same,"activity level, largest dose compared with lowest dose","[1]; 0.04 mg/kg vs 0.01 mg/kg i.p., FIG. 1",greater decrease in activity
same,"mean rearing, first 30 bins","[1]; 0.01-0.04 mg/kg i.p., FIG. 3",reduced rearing
same,"mean number of beam breaks, first thirty bins (first 15 min)","[1]; dose-response 0.01-0.04 mg/kg i.p., FIG. 2",reduced the mean number of beam breaks
same,average activity level (number of beam breaks) as a function of time,"[1]; i.p., 0.01-0.04 mg/kg, first half of 30-min session, FIG. 1",decreased activity levels
same,"mean number of beam breaks, first 15 min, lowest dose","[1]; lowest dose (0.01 mg/kg) i.p., FIG. 2",no activity-decreasing effect
same,relative potency between strains,"[2]; WKY vs SHR, from dose-response functions, FIG. 2",slightly more potent in WKY than in SHR rats
same,"mean number of beam breaks, first 15 min, largest dose, WKY compared with SHR","[2]; WKY vs SHR, largest dose (0.04 mg/kg) i.p., FIG. 2",greater reduction in activity levels
same,activity level (beam breaks) vs baseline,"[2]; WKY, 0.01 mg/kg i.p., FIG. 1",reduced activity from baseline
same,"activity level, largest dose compared with lowest dose","[2]; WKY, 0.04 mg/kg vs 0.01 mg/kg i.p., FIG. 1",greater decrease in activity
same,"mean rearing, first 30 bins","[2]; WKY, 0.01-0.04 mg/kg i.p., FIG. 3",reduced rearing
same,"mean number of beam breaks, first thirty bins (first 15 min)","[2]; WKY, dose-response 0.01-0.04 mg/kg i.p., FIG. 2",reduced the mean number of beam breaks
same,average activity level (number of beam breaks) as a function of time,"[2]; WKY, i.p., 0.01-0.04 mg/kg, first half of 30-min session, FIG. 1",decreased activity levels
same,"mean number of beam breaks, first 15 min, lowest dose","[2]; WKY, lowest dose (0.01 mg/kg) i.p., FIG. 2",affected by the lowest dose
